Results taken from ChEMBL document CHEMBL4610037, “Discovery of 5-(pyridin-3-yl)-1H-indole-4,7-diones as indoleamine 2,3-dioxygenase 1 (IDO1) inhibitors” (Bioorg Med Chem Lett, 2020).
Activity calls are given as the source filed them. The calls are words filed in the database; no cut-off is given here.

Assays:
[1] = target: T1, Indoleamine 2,3-dioxygenase 1 (Homo sapiens, UniProt P14902); experiment: Inhibition of recombinant human IDO1 expressed in Escherichia coli at 10 uM relative to control
Target sequence in this assay (P14902 whole entry, looked up): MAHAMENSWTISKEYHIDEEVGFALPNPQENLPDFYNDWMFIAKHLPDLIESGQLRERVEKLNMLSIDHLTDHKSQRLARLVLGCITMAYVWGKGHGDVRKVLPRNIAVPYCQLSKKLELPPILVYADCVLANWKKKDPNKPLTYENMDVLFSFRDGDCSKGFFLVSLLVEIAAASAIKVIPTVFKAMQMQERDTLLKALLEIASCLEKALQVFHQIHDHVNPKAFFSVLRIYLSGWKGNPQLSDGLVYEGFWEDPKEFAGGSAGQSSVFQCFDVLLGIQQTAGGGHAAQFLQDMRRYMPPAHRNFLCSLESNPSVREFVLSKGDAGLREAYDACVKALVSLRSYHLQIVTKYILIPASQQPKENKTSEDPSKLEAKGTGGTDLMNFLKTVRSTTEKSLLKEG

[2] = target: T1, Indoleamine 2,3-dioxygenase 1; experiment: Inhibition of recombinant human IDO1 expressed in Escherichia coli
Target sequence in this assay (P14902 whole entry): as the sequence (P14902 whole entry, looked up) above

[3] = target: T1, Indoleamine 2,3-dioxygenase 1; experiment: Inhibition of IFNgamma-stimulated IDO1 in human HeLa cells; format: cell-based
Target sequence in this assay (P14902 whole entry): as the sequence (P14902 whole entry, looked up) above

[4] = target: T1, Indoleamine 2,3-dioxygenase 1; experiment: Reversible inhibition of recombinant human IDO1 expressed in Escherichia coli at 100 uM using L-tryptophan as substrate
Target sequence in this assay (P14902 whole entry, looked up): as above

[5] = target: T1, Indoleamine 2,3-dioxygenase 1; experiment: Competitive inhibition of recombinant human IDO1 expressed in Escherichia coli at 1 to 4 uM using L-tryptophan as substrate
Target sequence in this assay (P14902 whole entry, looked up): as above

| SMILES | inhibition [1] | IC50 [2] | EC50 [3] | inhibition [4] | inhibition [5] |
| --- | --- | --- | --- | --- | --- |
| CCN(CC)CCc1c[nH]c2c1C(=O)C(c1cccnc1)=CC2=O | 64.2% | 2.26 µM | > 10 µM | – | – |
| COc1ccccc1C1=CC(=O)c2[nH]cc(CCNC(=O)OC(C)(C)C)c2C1=O | 63.2% | 2.38 µM | – | – | – |
| CC(=O)NCCc1c[nH]c2c1C(=O)C(c1cccnc1)=CC2=O | 57.5% | 1.36 µM | > 10 µM | – | – |
| CC(C)(C)OC(=O)NCCc1c[nH]c2c1C(=O)C(c1ccncc1)=CC2=O | 12.4% | – | – | – | – |
| Cc1ccc(C2=CC(=O)c3[nH]cc(CCNC(=O)OC(C)(C)C)c3C2=O)cc1 | 25.5% | – | – | – | – |
| CC(C)(C)OC(=O)NCCc1c[nH]c2c1C(=O)C(c1ccccc1)=CC2=O | 56.4% | 2.94 µM | – | – | – |
| CN(C)CCc1c[nH]c2c1C(=O)C(c1cccnc1)=CC2=O | 71.3% | 0.5 µM | 4.22 µM | – | – |
| O=C(NCCc1c[nH]c2c1C(=O)C(c1cccnc1)=CC2=O)c1ccccc1 | 65.7% | 2.08 µM | 5.09 µM | – | – |
| O=C1C=C(c2cccnc2)C(=O)c2c(CCNCCc3ccccc3)c[nH]c21 | 68.3% | 4 µM | > 10 µM | – | – |
| O=C1C=C(c2cccnc2)C(=O)c2c(CCNS(=O)(=O)c3ccccc3)c[nH]c21 | 59.7% | 3.51 µM | 4.92 µM | – | – |
| CCCCNCCc1c[nH]c2c1C(=O)C(c1cccnc1)=CC2=O | 79.2% | 0.88 µM | 2.72 µM | – | – |
| CC(C)(C)C(=O)NCCc1c[nH]c2c1C(=O)C(c1cccnc1)=CC2=O | 72.3% | 0.77 µM | 4.6 µM | – | – |
| CC(C)(C)CNCCc1c[nH]c2c1C(=O)C(c1cccnc1)=CC2=O | 79.5% | 0.56 µM | 4.53 µM | – | – |
| NCCc1c[nH]c2c1C(=O)C(c1cccnc1)=CC2=O | 74.9% | 0.51 µM | 6.62 µM | – | – |
| CC(C)(C)OC(=O)NCCc1c[nH]c2c1C(=O)C(c1ccc(F)cc1)=CC2=O | 43.3% | – | – | – | – |
| CC(C)(C)OC(=O)NCCc1c[nH]c2c1C(=O)C(c1ccccc1F)=CC2=O | 67.3% | 2.09 µM | – | – | – |
| CC(C)(C)OC(=O)NCCc1c[nH]c2c1C(=O)C(c1cccnc1)=CC2=O | 66.5% | 1.9 µM | 5.4 µM | Active | Active |
| COc1ccc(C2=CC(=O)c3[nH]cc(CCNC(=O)OC(C)(C)C)c3C2=O)cc1 | 34.5% | – | – | – | – |
| CC(C)NCCc1c[nH]c2c1C(=O)C(c1cccnc1)=CC2=O | 63.8% | 0.51 µM | 2.6 µM | – | – |
| O=C1C=C(c2cccnc2)C(=O)c2c(CCNC3CCCCC3)c[nH]c21 | 65% | 1.5 µM | 2.54 µM | – | – |
| CCNCCc1c[nH]c2c1C(=O)C(c1cccnc1)=CC2=O | 81.7% | 0.16 µM | 3.58 µM | – | – |
